Experimental data taken from patent US20230277546A1, “AGENT FOR SUPPRESSING POST-SURGICAL CANCER RECURRENCE AND/OR METASTASIS” (ONO PHARMACEUTICAL CO., LTD., priority 2017, published 2023).
Structures can show the parent of a compound that is named as a salt.

Legend:
[1] = tested on: non-small cell lung cancer; experiment: Multicenter, unblinded, randomized, controlled investigator-initiated clinical trial: perioperative landiolol hydrochloride to suppress postsurgical recurrence; type: in vivo, human; conditions: 2.5 μg/kg/min at the beginning, adjusted 0.5 to 5 μg/kg/min; continuous iv from immediately before anesthetic induction for 72 hours
Procedure: Patients with non-small cell lung cancer who will undergo surgery for complete resection of the cancer are involved in the study. For evaluating effectiveness and safety of landiolol hydrochloride in the patients, a multicenter, unblinded, randomized, controlled, investigator-initiated clinical trial is carried out as described below. The control group includes the patients who undergo the surgery but are not treated with landiolol hydrochloride.
Primary endpoints: recurrence-free survival (RFS) over first two postoperative years and overall survival (OS)
Secondary endpoints: <Effectiveness> For example, whether the patients are subjected to treatment of recurrence or not, and if subjected, the period until the treatment; the time until OS or the treatment of recurrence, <Safety> adverse events, incidence of postoperative complication, blood pressure, 12-lead electrocardiogram, and general laboratory test
Dosage: 2.5 μg/kg/min at the beginning and adjusted in the range of 0.5 to 5 μg/kg/min
Administration period: continuous intravenous administration is started immediately before the anesthetic induction and kept for 72 hours

[2] = tested on: malignant lung tumor; experiment: Analysis of effects of landiolol hydrochloride in patients who underwent lung resection surgery (recurrence-free and overall survival, Kaplan-Meier); type: in vivo, human
Procedure: Ethics committee approval was obtained before the study was started. Among the patients who underwent lung lobectomy, the outcomes were compared between those who were treated with landiolol hydrochloride and those who were not treated with it.
For each patient the following information was drawn from the medical chart from May 2012 to Mar. 31, 2017 and recorded in clinical report form (CRF). • Background of the patient (date of birth, sex, stage of lung cancer, weight, height, and performance status) • Date of the lung cancer surgery • Whether landiolol hydrochloride was administered or not, and if administered, the dose thereof • Date on which recurrence was diagnosed (date of diagnostic imaging or date on which recurrence was clinically diagnosed) • Date on which recurrence-free survival was last confirmed • Date of death • Date on which survival was last confirmed • Whether adjuvant chemotherapy was applied or not
The 2-year recurrence-free survival rate was compared between the patients who had been treated with landiolol hydrochloride and the patients who had not been treated with it to evaluate the effect of landiolol hydrochloride.
Kaplan-Meier method as described below was employed to calculate the 2-year recurrence-free survival rate.
The recurrence was defined as follows; • The recurrence included both of recurrence diagnosed on the basis of diagnostic imaging and clinical recurrence diagnosed on the basis of aggravation of a symptom instead of the diagnostic imaging. The date of recurrence was the date of the diagnostic imaging or the date on which the clinical recurrence was diagnosed. Even if an increased tumor marker was detected previously, the fact alone was not regarded as indicating recurrence and the date of recurrence was the date of the diagnostic imaging or the date on which the clinical recurrence was diagnosed. When no recurrence was diagnosed during the observation period, the patients were censored on the day of final confirmation of recurrence-free survival. • When recurrence was diagnosed by the diagnostic imaging, the event was regarded as having occurred on the date of the diagnostic imaging that gave the definitive diagnosis, not the date of the diagnostic imaging that raised the suspicion of recurrence. When recurrence was clinically diagnosed, the event was regarded as having occurred on the date of the diagnosis. • Definitive diagnosis of recurrence may be based on biopsy analysis. When recurrence was successfully diagnosed by the clinical diagnosis before the biopsy analysis, the event was regarded as having occurred on the date of the clinical diagnosis. When recurrence was not successfully diagnosed by the clinical diagnosis alone, but finally diagnosed by the biopsy analysis, the event was regarded as having occurred on the date of the biopsy analysis. • Occurrence of any one of secondary cancer, metachronous double cancers, and metachronous multiple cancers was not regarded as the event or the censor. Unless another event was observed, the patient was regarded as being recurrence-free. […]
The recurrence-free survival and the overall survival were calculated according to the following equations; • The recurrence-free survival (days)=“date of diagnosis of recurrence or date of death for any cause, whichever came earlier”−“date of surgery”+1 • The overall survival (days)=“date of death for any cause”−“date of surgery”+1 […]

[3] = vs control group without administration, after lung cancer surgery

Question: Which results are given for `CC1(C)OC[C@@H](COC(=O)CCc2ccc(OC[C@@H](O)CNCCNC(=O)N3CCOCC3)cc2)O1` [landiolol hydrochloride, Landiolol hydrochloride]?
Answer: effect to suppress recurrence and/or metastasis of the cancer [1]: confirms the effect; Censor, (%) ([2]; censored patients, first two postoperative years, test group N = 28): (89.3) %; 2-year Recurrence-free survival rate [95% CI] ([2]; patients after lung resection surgery, intravenous continuous 2.5 μg/kg/min from induction to completion of anesthesia, N = 28, Kaplan-Meier): 89.3%; Event, (%) ([2]; recurrence or death events within first two postoperative years, test group N = 28, 2.5 μg/kg/min iv continuous during anesthesia): (10.7) %; overall survival (Kaplan-Meier curve, FIG. 2) [2, 3]: tendency that the administration of landiolol hydrochloride prolongs; recurrence-free survival (Kaplan-Meier curve, FIG. 1) [2, 3]: tendency that the administration of landiolol hydrochloride prolongs
